For this assay, the system named is skin exhibiting psoriasis. The experiment in a line: topical application to skin exhibiting psoriasis (Example 1). The class given is in vivo, human. The settings on record: one subject, treatments used before the solution. The source says:
A further understanding of the present invention will be afforded by a consideration of the following non-limiting examples. In these examples, the “full strength” 100% solution was utilized. These examples are illustrative of the principals of the present invention and are not intended to limit the scope of the invention to the exemplary uses and formulations.
Three subjects, two male and one […], suffering from psoriasis, applied the solution to areas on their bodies and rubbed in the solution with their fingertips several times per day or as needed. Areas of application included knees and elbows.
It is important to note that some of the subjects had suffered from psoriasis for an extended period of time and had tried a variety of treatments. One subject had previously utilized various tars, cortisones, temovate and methotrexate treatments.

Consider `CCC(=O)O[C@]1(C(=O)CCl)[C@@H](C)C[C@H]2[C@@H]3CCC4=CC(=O)C=C[C@]4(C)[C@@]3(F)[C@@H](O)C[C@@]21C` [temovate], for which the “outcome of previous psoriasis treatments” value is “without success”.

Regarding `CN(Cc1cnc2nc(N)nc(N)c2n1)c1ccc(C(=O)N[C@@H](CCC(=O)O)C(=O)O)cc1` [methotrexate], the “outcome of previous psoriasis treatments” value is recorded as “without success”.
